This note sets out measurements from US20260315604A1, “OTUB1 Small-Molecule Binders and OTUB1-recruiting Deubiquitinase-targeting Chimeras (DUBTACs)” (ICAHN SCHOOL OF MEDICINE AT MOUNT SINAI, priority 2023, published 2026).

Where only a bound is given, the exact number is not on record here.

The target in the assay is T1, Human OTUB1 wild-type (Homo sapiens, UniProt Q96FW1).
T1 construct: His tag (N); made in house; host or cells: E. coli BL21-CodonPlus (DE3)-RIPIL
T1 sequence (Q96FW1 whole entry): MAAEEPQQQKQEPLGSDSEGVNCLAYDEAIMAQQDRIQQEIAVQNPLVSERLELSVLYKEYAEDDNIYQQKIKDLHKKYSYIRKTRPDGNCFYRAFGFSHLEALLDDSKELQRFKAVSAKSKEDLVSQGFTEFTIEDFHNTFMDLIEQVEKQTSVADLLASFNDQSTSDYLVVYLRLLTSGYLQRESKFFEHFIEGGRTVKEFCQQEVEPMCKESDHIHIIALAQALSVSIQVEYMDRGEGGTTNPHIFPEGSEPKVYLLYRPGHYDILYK
In words: Covalent modification of OTUB1 (adduct formation), mass spectrometry-based assay (OTUB1 covalent binders; selected CFTR or cGAS based bivalent compounds). The assay is classed as binding. The settings on record: covalent adduct formation with OTUB1 protein. The protocol: OTUB1 covalent binders were tested for their ability to form the covalent adduct with OTUB1 protein using a mass-spectrometry based assay.
Example 389. Assessment of the Covalent Modification of OTUB1 Protein by Selected OTUB1 Covalent Binders Using a Mass Spectrometry-Based Assay (FIG. 1)
OTUB1 protein (10 μM) was incubated with selecting compounds (2500 μM) at RT for 1 h. The adduct was qualified by mass spectrometry-based assays.
Example 398. Assessment of the Covalent Modification of OTUB1 Protein by Selected CFTR Based Bivalent Compounds Using Mass Spectrometry-Based Assay (FIG. 10)
OTUB1 protein (10 μM) was incubated with selecting bivalent compounds (2500 μM) at RT for 1 h. The adduct was qualified by mass spectrometry-based assays.
Human OTUB1 wild-type (NM_017670.3) and C23S mutation genes were optimized based on the codon preference of E. coli, synthesized and cloned into pET15b vector with a N-terminal His tag by Genscript, respectively. The plasmid was transferred to BL21-CodonPlus (DE3)-RIPIL Competent Cell (230280, Agilent Technologies) and the recombinant protein was induced expressed by 0.5 mM IPTG at 16° C. with shaking 200 rpm for 18 h. Induced cells were harvested by centrifugation and resuspended in cold lysis buffer (50 mM Tris-H—Cl pH 7.5, 150 mM NaCl, 25 mM imidazole pH 7.5, 0.01% IGEPAL, 5% Glycerol) in the presence of Pierce Protease Inhibitor tablets (PIA32963, Fisher Scientific) and 2 mM TCEP pH 7.5.
The cells were lysed by sonication, clarified by centrifugation, and the filtered supernatant loaded onto a 5 ml HisTrap HP affinity column (17524802, Cytiva) in AKTA system. The His-recombinant protein bound to column was washed using buffer A (50 mM Tris-HCl pH 7.5, 150 mM NaCl, 25 mM imidazole pH 7.5, 0.01% IGEPAL, 5% Glycerol) and eluted with buffer B (50 mM Tris-HCl pH 7.5, 150 mM NaCl, 250 mM imidazole pH 7.5, 0.01% IGEPAL, 5% Glycerol). The eluted fractions containing OTUB1 protein were concentrated and subjected to size exclusion chromatography using a 320 mL HiLoad 26/600 Superdex 200 pg column (28989336, Cytiva) under the buffer condition ([…] Tris-HCl pH 7.5, 150 mM NaCl, and 2 mM TCEP pH 7.5). The eluted fractions containing OTUB1 protein were concentrated, divided into aliquots and stored at −80° C. freezer for further usage.
Quality control of the OTUB1 proteins was performed by SDS-PAGE, Nanodrop and mass spectrometry.
Mass Spectrometry-Based Analysis of OTUB1-Covalent Ligand Adducts
To screen the covalent ligands, recombinant OTUB1 protein (10 μM) was respectively incubated with DMSO, EN523 or seven novel ligands (2500 μM) in reaction buffer (50 mM Tris-HCl pH 7.5, 150 mM NaCl, and 0.5 mM TCEP pH 7.5) for 1 h at room temperature.
Then, the total 500 μL reaction solution was exchanged and concentrated to 50 μL 50 mM ammonium bicarbonate with a 10 kDa MWCO centrifugal filter unit (UFC901024, Millipore) and diluted in MS buffer (30% ACN, 0.2% FA) to a final concentration of […]. Mass spectrometry detection was performed by an Agilent LC/MSD Time-Of-Flight (TOF) mass spectrometer (Agilent Technologies) equipped with an electrospray ion source. The data was analyzed by TOF Protein Confirmation Software. All experiments were performed in duplicate.
As to `CC(C)c1ccc(NC(=O)C2CN(C(=O)/C=C/CN(C)C)C2)s1` [XS175-143, (E)-1-(4-(dimethylamino)but-2-enoyl)-N-(5-isopropylthiophen-2-yl)azetidine-3-carboxamide], the “% of OTUB1 modified” value is on record as 45%.

On to `Cc1ccc(NC(=O)C2CCCCN2C(=O)/C=C/CN(C)C)s1` (stereo not shown) [XS175-148, (E)-1-(4-(dimethylamino)but-2-enoyl)-N-(5-methylthiophen-2-yl)piperidine-2-carboxamide], for which the “% of OTUB1 modified” value is 20%.

In the case of `Cc1ccc(NC(=O)C2CC3(C2)CN(C(=O)/C=C/CN(C)C)C3)s1` [XS175-149, (E)-2-(4-(dimethylamino)but-2-enoyl)-N-(5-methylthiophen-2-yl)-2-azaspiro[3.3]heptane-6-carboxamide], the “% of OTUB1 modified” value was 18%.

In the case of `CN(C)C/C=C/C(=O)N1CCN(c2ccc(-c3ccccc3)s2)C(=O)C1` [XS175-158, (E)-4-(4-(dimethylamino)but-2-enoyl)-1-(5-phenylthiophen-2-yl)piperazin-2-one], the “% of OTUB1 modified” value is reported as 45%.

Take `Cc1ccc(N(C)C(=O)CCN(C)C(=O)/C=C/CN(C)C)s1` [XS175-160, (E)-4-(dimethylamino)-N-methyl-N-(3-(methyl(5-methylthiophen-2-yl)amino)-3-oxopropyl)but-2-enamide]: the “% of OTUB1 modified” value was <1%.

Take `Cc1csc(NC(=O)C2CCN(C(=O)/C=C/CN(C)C)CC2)c1` [XS175-173, (E)-1-(4-(dimethylamino)but-2-enoyl)-N-(4-methylthiophen-2-yl)piperidine-4-carboxamide]: the “% of OTUB1 modified” value stood at 3%.

For `CC(C)c1ccc(NC(=O)C2CCN(C(=O)/C=C/CN(C)C)CC2)s1` [XS175-178, (E)-1-(4-(dimethylamino)but-2-enoyl)-N-(5-isopropylthiophen-2-yl)piperidine-4-carboxamide], the “% of OTUB1 modified” value is reported as 3%.

For `CN(C)C/C=C/C(=O)N1CCN(c2cc3ccccc3s2)C(=O)C1` [XS175-179, (E)-1-(benzo[b]thiophen-2-yl)-4-(4-(dimethylamino)but-2-enoyl)piperazin-2-one], the “% of OTUB1 modified” value is recorded as 100%.

As to `CC(C)c1ccc(NC(=O)C2CCN(C(=O)/C=C/CN(C)C)C2)s1` (stereo not shown) [XS175-180, (E)-1-(4-(dimethylamino)but-2-enoyl)-N-(5-isopropylthiophen-2-yl)pyrrolidine-3-carboxamide], the “% of OTUB1 modified” value stood at 8%.

As for `CN(C)C/C=C/C(=O)N1CCN(c2cc3c(s2)CCCC3)C(=O)C1` [XS175-186, (E)-4-(4-(dimethylamino)but-2-enoyl)-1-(4,5,6,7-tetrahydrobenzo[b]thiophen-2-yl)piperazin-2-one], the “% of OTUB1 modified” value is 100%.

For the compound `Cc1ccc(N2CC3(CN(C(=O)/C=C/CN(C)C)C3)C2)s1` [XS185-3, (E)-4-(dimethylamino)-1-(6-(5-methylthiophen-2-yl)-2,6-diazaspiro[3.3]heptan-2-yl)but-2-en-1-one], the “% of OTUB1 modified” value was found to be 35%.

Consider `Cc1ccc(NC(=O)C2CCN(C(=O)CCl)CC2)s1` [XS185-4, 1-(2-chloroacetyl)-N-(5-methylthiophen-2-yl)piperidine-4-carboxamide], for which the “% of OTUB1 modified” value was 100%.

Take `Cc1ccc(NC(=O)C2CC3(C2)CN(C(=O)CCl)C3)s1` [XS185-5, 2-(2-chloroacetyl)-N-(5-methylthiophen-2-yl)-2-azaspiro[3.3]heptane-6-carboxamide]: the “% of OTUB1 modified” value amounted to 100%.

As to `CC(C)c1ccc(NC(=O)C2CCN(C(=O)CCl)CC2)s1` [XS185-6, 1-(2-chloroacetyl)-N-(5-isopropylthiophen-2-yl)piperidine-4-carboxamide], the “% of OTUB1 modified” value was 100%.

For `CN(C)C/C=C/C(=O)N1CCN(c2c[nH]c3ccccc23)C(=O)C1` [XS185-43, (E)-4-(4-(dimethylamino)but-2-enoyl)-1-(1H-indol-3-yl)piperazin-2-one], the “% of OTUB1 modified” value was 58%.

With `CN(C)C/C=C/C(=O)N1CC2(C1)CN(c1cc3ccccc3s1)C2` [XS185-46, (E)-1-(6-(benzo[b]thiophen-2-yl)-2,6-diazaspiro[3.3]heptan-2-yl)-4-(dimethylamino)but-2-en-1-one], the “% of OTUB1 modified” value was determined as 1%.

Regarding `Cc1ccc(C(=O)N2CCN(C(=O)/C=C/CN(C)C)CC2)s1` [XS185-64, (E)-4-(dimethylamino)-1-(4-(5-methylthiophene-2-carbonyl)piperazin-1-yl)but-2-en-1-one], the “% of OTUB1 modified” value is recorded as 20%.

Consider `Cc1ccc(C(=O)N2CCC(NC(=O)/C=C/CN(C)C)CC2)s1` [XS185-65, (E)-4-(dimethylamino)-N-(1-(5-methylthiophene-2-carbonyl)piperidin-4-yl)but-2-enamide], for which the “% of OTUB1 modified” value was found to be 1%.

Consider `Cc1ccc(C(=O)N2CC3(CCN(C(=O)/C=C/CN(C)C)CC3)C2)s1` [XS185-66, (E)-4-(dimethylamino)-1-(2-(5-methylthiophene-2-carbonyl)-2,7-diazaspiro[3.5]nonan-7-yl)but-2-en-1-one], for which the “% of OTUB1 modified” value was found to be 20%.

Take `Cc1ccc(C(=O)N2C3CC2CN(C(=O)/C=C/CN(C)C)C3)s1` [XS185-67, (E)-4-(dimethylamino)-1-(6-(5-methylthiophene-2-carbonyl)-3,6-diazabicyclo[3.1.1]heptan-3-yl)but-2-en-1-one]: the “% of OTUB1 modified” value stood at 15%.

Turning to `Cc1ccc(C(=O)N2CC3(CN(C(=O)/C=C/CN(C)C)C3)C2)s1` [XS185-69, (E)-4-(dimethylamino)-1-(6-(5-methylthiophene-2-carbonyl)-2,6-diazaspiro[3.3]heptan-2-yl)but-2-en-1-one], the “% of OTUB1 modified” value was found to be 30%.

As to `Cc1ccc(C(=O)N2CC3CCC(C2)N3C(=O)/C=C/CN(C)C)s1` [XS185-70, (E)-4-(dimethylamino)-1-(3-(5-methylthiophene-2-carbonyl)-3,8-diazabicyclo[3.2.1]octan-8-yl)but-2-en-1-one], the “% of OTUB1 modified” value is recorded as 20%.

For `Cc1ccc(C(=O)N2C3CCC2CN(C(=O)/C=C/CN(C)C)C3)s1` [XS185-71, (E)-4-(dimethylamino)-1-(8-(5-methylthiophene-2-carbonyl)-3,8-diazabicyclo[3.2.1]octan-3-yl)but-2-en-1-one], the “% of OTUB1 modified” value was 15%.

For `Cc1ccc(C(=O)N2CC3CC(C2)N3C(=O)/C=C/CN(C)C)s1` [XS185-72, (E)-4-(dimethylamino)-1-(3-(5-methylthiophene-2-carbonyl)-3,6-diazabicyclo[3.1.1]heptan-6-yl)but-2-en-1-one], the “% of OTUB1 modified” value is listed as 90%.

`Cc1ccc(N2CC3CCC(C2=O)N3C(=O)/C=C/CN(C)C)s1` (stereo not shown) [XS185-75, (E)-8-(4-(dimethylamino)but-2-enoyl)-3-(5-methylthiophen-2-yl)-3,8-diazabicyclo[3.2.1]octan-2-one]: the “% of OTUB1 modified” value was found to be 98%.

As for `CN(C)C/C=C/C(=O)N1CCN(c2cc3ccccc3o2)C(=O)C1` [XS185-78, (E)-1-(benzofuran-2-yl)-4-(4-(dimethylamino)but-2-enoyl)piperazin-2-one], the “% of OTUB1 modified” value is reported as 40%.

Turning to `CN(C)C/C=C/C(=O)N1CCN(c2csc3ccccc23)C(=O)C1` [XS185-86, (E)-1-(benzo[b]thiophen-3-yl)-4-(4-(dimethylamino)but-2-enoyl)piperazin-2-one], the “% of OTUB1 modified” value turned out to be 80%.

Take `C=C(C#N)CN1CCN(c2ccc(C)s2)C(=O)C1` [XS185-87, 2-((4-(5-methylthiophen-2-yl)-3-oxopiperazin-1-yl)methyl)acrylonitrile]: the “% of OTUB1 modified” value came to 1%.
